Data set [1] in a line: DLS particle size distribution in Tris-HCl buffer. It is filed as physicochemical. The note with it: 20 μM. The text has this: Given the amphiphilic nature of the complexes, with the functionalized phenanthroline ligand serving as a lipophilic tail and the Ru(II) core serving as a hydrophilic headgroup, it was of interest to investigate the potential tendency of the complexes to form micelle-like aggregates in aqueous solutions. […] Our focus was to investigate the aggregation behavior in a purely aqueous environment, without the use of cosolvents such as DMSO. Since complexes 5–7 could not be solubilized under these conditions, they were not included in the DLS analysis.
The particle size distribution of the complexes was determined by dynamic light scattering (DLS) using a Particle Analyzer Litesizer 500 (Anton Paar, Austria) at 25 °C. 20 μM solutions of complexes 1–4 and of [Ru(bpy)3]-Cl2 in Tris-HCl buffer, as well as 20 μM solutions of complexes 1–4 in Gibco DMEM (Dulbecco’s Modified Eagle Medium with high glucose, L-glutamine, pyruvate, 10% FBS, and without phenol red), were analyzed by DLS. The experiments were performed in triplicate, yielding similar results.

A short description of data set [2]: UV-vis absorption, emission spectra and luminescence quantum yield. In kind it is physicochemical. The note with it: for Φ (luminescence quantum yield): air-equilibrated; for λem: excitation 450 nm. The method, then: We studied the absorption and emission properties of the complexes in different solvents including MeCN, MeOH, and Tris-HCl aqueous buffer (0.05 M, pH 7.4). Due to solubility limitations, only complexes 1–4 were studied in Tris-HCl aqueous buffer. Indicatively, the comparative UV–vis absorption and emission spectra of complexes 4 and 7 in MeCN at 298 K are presented in Figure e.
The photophysical data are summarized in Tables and , and all measurements were conducted in air-equilibrated solvents.
(§1) ^1H, ^1H–^1H COSY, and ^13C NMR spectra were recorded on a 500 MHz NMR spectrometer (Agilent). Absorption spectra were acquired by using a JASCO V-750 spectrophotometer. For recording the emission spectra, we used an Edinburgh Instruments FS5 spectrofluorometer equipped with a red-sensitive Hamamatsu R13456 photomultiplier tube (PMT) and a 150 W xenon arc lamp as the light source. All spectra were corrected for detector response using the correction files and software (Fluoracle) provided by the manufacturer. The luminescence quantum yields of the complexes were calculated using the optically dilute method with an air-equilibrated aqueous solution of [Ru(bpy)3]-Cl2 (Φem = 0.049, λex = 436 nm) as the standard solution. , Emission lifetime measurements were performed using an Edinburgh Instruments mini-τ lifetime spectrometer with a bandpass filter (±40 nm bandpass) at 650 nm. The excitation source was an Edinburgh Instruments picosecond pulsed LED (EPLED-320) with a peak wavelength of 326.8 nm and a pulse width of 910 ps. The detector was a thermoelectrically cooled, high-speed, red-sensitive photomultiplier tube (Hamamatsu H10720-01). The data were analyzed by using the software provided by the manufacturer (Fluoracle). For emission lifetime calculations, the experiments were performed in triplicate, yielding similar results. The MS spectra were acquired using an LC20AD Shimadzu connected to Shimadzu LCMS-2010EV, with a flow rate of 0.4 mL/min MeOH or MeCN + 0.1% formic acid. LCMS analysis was carried out on an Agilent 1260 Infinity with a Raptor C18 column (50 mm × 2.1 mm, 2.7 μm particle size). A two-minute gradient from 5% to 95% MeCN in water was used, supplemented with 0.1% formic acid.

Data set [3] in a line: Emission lifetime (time-resolved luminescence decay). It is filed as physicochemical. The method, then: Given the changes in the aggregation profiles of the complexes in cell culture medium containing FBS, as observed by DLS analysis, we also examined their emission lifetimes under these conditions (Table and Figure S52F–J). For this analysis, an 80 μM solution of each complex was utilized to achieve an improved signal-to-background ratio. […] However, the emission decay behavior of complexes 2–4 differs markedly from that of the estrogen-free control and from that of [Ru(bpy)3]^2+. In a cell culture medium with 10% FBS, the decay profile of complex 1 can be fitted to a biexponential model, comprising a short-lived component (355 ns, 6.6% contribution), consistent with the monomeric species, and a long-lived component (672 ns, 93.4% contribution) attributable to the aggregated form. […] Consistent with the behavior observed in Tris-HCl buffer, the addition of MeCN to a solution of complex 3 in FBS-containing medium led to aggregate disruption once the MeCN content reached 30%, as evidenced by a decrease in emission lifetime to 436 ns, signaling the dominance of the nonaggregated form (Figure f). Overall, our findings collectively confirm that aggregation correlates with the observed emission enhancement in aqueous solutions and that complexes 1–4 predominantly exist as self-assembled micelle-like aggregates in the cell culture medium used for our cellular studies. Nevertheless, it cannot be unequivocally determined from these experiments whether the complexes preserve their aggregated form in the intracellular environment.
as §1

In data set [4] the test system is MCF-7 (ER+) cells. Kind of data set: MTS viability assay (dark and 457 nm light) in MCF-7. It is filed as cell-based. The note with it: for IC50: MCF-7, 457 nm for 12 min at 6 h, 24 h incubation, MTS; for SI = selectivity index, [IC50(ER‑)]light/[IC50(ER+)]light: MDA-MB-453 (ER-) vs MCF-7 (ER+).
Procedure: (§2) We determined the cytotoxicity of all the complexes using the well-established MTS assay against two breast cancer cell lines: MCF-7, which is ER+, and MDA-MB-453, which is ER-.
(§3) In this experiment, the cells were irradiated with blue light (457 nm) for 12 min.
(§4) MDA-MB-453 and MCF-7 cells were grown in high-glucose Dulbecco’s Modified Eagle Medium (DMEM) containing 10% fetal bovine serum at 37 °C with 5% CO2 in humidified air.
(§5) For viability experiments, cells were seeded at a density of 20,000 cells per well in Greiner-Bio black μClear plates. After 24 h, the corresponding ruthenium complexes were added at the appropriate concentrations (30 nM to 100 μM for complexes 1-4 and 30 nM to 20 μM for 5–7, < 1% DMSO) and allowed to incubate. For the phototoxicity experiments, the plate was removed at the six-hour time point and irradiated for 12 min using a Lumidox 457 nm 96-LED array set to 8 mA (2 mW/cm^2, a total of 1.2 J/s). After an overall 24 h incubation period, the media were replaced with fresh media containing an MTS/PMS mixture as per the Promega protocol (MTS: 3-(4,5-dimethylthiazol-2-yl)-5-(3-carboxymethoxyphenyl)-2-(4-sulfophenyl)-2H-tetrazolium; PMS: phenazine methosulfate). After an additional 4 h had passed, the absorbance at 490 nm (MTS) and 635 nm (background) was measured. Cell viability was calculated from the dose-response curve of the absorbance (MTS – background).
In data set [5] the test system is MDA-MB-453 (ER-) cells. Kind of data set: MTS viability assay (dark and 457 nm light) in MDA-MB-453. It is filed as cell-based. The note with it: MDA-MB-453, 457 nm for 12 min at 6 h, 24 h incubation. (In general: Tetrazolium assays rely on reduction of a dye to a coloured formazan, in cell work by metabolically active cells.)
Procedure: as §2, §3, §4, §5
Data set [6] deals with MCF-7 (ER+) and MDA-MB-453 (ER−) cells. Kind of data set: Cellular uptake of ruthenium by ICP-MS. The note with it: 20 μM, 6 h, MCF-7 vs MDA-MB-453. It is filed as cell-based. The method, then:
Thus, the cellular uptake of complexes 3 and 4 was evaluated and compared to the control complex 1 in ER+ (MCF-7) and ER– (MDA-MB-453) cell lines using inductively coupled plasma mass spectrometry (ICP-MS) (Figure b). […] This trend is consistent with its increased lipophilicity and the brighter red luminescence observed by microscopy for this complex. It is well established that lipophilicity can enhance membrane permeability and cellular internalization.
Cells were seeded at the appropriate density in 6-well plates (1 × 10^6 cells per well for MDA-MB-453 and 400,000 cells per well for MCF-7) and allowed to adhere for 24 h. Ruthenium complexes were added to the wells by direct dilution of a 10 mM DMSO stock solution to yield a final concentration of 20 μM in culture medium. After 6 h of incubation, the medium was removed, and the cells were washed three times with phosphate-buffered saline (PBS) to eliminate extracellular ruthenium. Cells were subsequently detached using trypsin, collected by centrifugation, and counted. […] The monitored isotope was 101Ru. A set of ruthenium calibration standards was used to establish and model the linear relationship between signal and concentration before the samples were injected, signal measured, and averaged across three consecutive signal acquisitions. The amount of metal detected in the cell samples was normalized to ppb per 1,000,000 cells.

Data set [7] concerns MCF-7 (ER+) cells. Kind of data set: Luminescence microscopy of treated ER+ cells. In kind it is cell-based. The note with it: Figure S62, 6 h incubation. On the procedure:
3 Microscopy imaging of cells incubated with complex 3 (20 μΜ) and complex 4 (10 μΜ) for 6 h: brightfield (left), photosensitizer luminescence (middle), and overlaid (right) images. (b) Cellular uptake by ICP-MS of complexes 1, 3, and 4 (20 μM, 6 h) in MCF-7 (ER+) and MDA-MB-453 (ER−) cells.
For imaging experiments, cells were seeded at a density of 20,000 cells per well in Greiner-Bio black μClear plates. After 24 h, the corresponding ruthenium complexes were added at the appropriate concentrations. After 6 h, the cells were washed 3 times with media, and the media were replaced with phenol-red-free media. Compounds were imaged on an Eclipse-Ti2 Widefield system (Nikon), equipped with a Prime 95B sCMOS camera (Teledyne), pE-400 LED light source (CoolLED), a 20× or 40× objective, and emission filters for green (515/30 nm), orange (600/50 nm), red (641/75 nm), and far-red (705/72 nm). The bright-field channel was used to autofocus each well, after which the complexes were excited using a 450 nm laser and the red emission channel collected.

On the set-up of data set [8]: method as in doi:10.1021/ja00432a028. The note with it: H2O; cited from earlier work.
For data set [9] the following is noted: in water; literature value, reference number not given; cited from earlier work.
Setting [10] is: Tris-HCl buffer (0.05 M, pH 7.4), 298 K.
Where [11] appears, read: Tris-HCl buffer (0.05 M, pH 7.4).
Where [12] appears, read: cell culture medium (DMEM, 10% FBS, no phenol red), 80 μM.
The mark [13] stands for this setting: cell culture medium with 10% FBS, biexponential fit.

Read-outs that look alike come from different tables or passages of the source.

By IC50 is commonly meant the concentration needed to halve the response being measured. For the compound `CCCCc1cn(-c2cc3cccnc3c3ncccc23)nn1.[Cl-].[Cl-].[Ru+2].c1ccc(-c2ccccn2)nc1.c1ccc(-c2ccccn2)nc1` [Complex 1, [Ru(bpy)2(L-1a)]Cl2], the “aggregate size (DLS, particle size distribution by intensity)” value in data set [1] is given as “around 100 nm”. In data set [2] (MeCN (298 K)), the ε is on record as 1.2 × 10^4 M^–1 cm^–1, the λabs turned out to be 450 nm, the “Φ (luminescence quantum yield)” value came to 2.1% and the λem was determined as 625 nm. Besides, in data set [2] (setting [10]), the ε is given as 1.1 × 10^4 M^–1 cm^–1, the λabs turned out to be 449 nm, the “Φ (luminescence quantum yield)” value came to 5.6% and the λem came out at 635 nm. Further, in [3] (MeCN), the τ1 was determined as 165 ns. In [3] (MeOH), this compound came in with a τ1 of 225 ns. The τ1 in data set [3] (setting [11]) was 599 ns. Besides, the “contribution of τ1 (short-lived component) to the decay” value in data set [3] (Tris-HCl buffer, biexponential fit) is “less than 1%”. In data set [3] (setting [12]), this compound came in with a τ1 of 355 ns and a τ2 of 672 ns. Further, in [3] (setting [13]), the “contribution of τ1 to the decay” value was 6.6% and the “contribution of τ2 to the decay” value was 93.4%. In data set [4], the IC50 was greater than 100 µM and the “SI = selectivity index, [IC50(ER‑)]light/[IC50(ER+)]light” value is recorded as “NPD ^b”. In addition, the IC50 in [5] is greater than 100 µM. Further, in data set [6], the “uptake in ER+ cells compared to ER– cells (ICP-MS)” value is reported as “slightly higher accumulation in ER– cells than in ER+ cells”. In data set [7], the “intracellular luminescence, ER+ versus ER– cells (microscopy)” value is on record as “no notable difference in luminescence between the two cell lines”.
For the compound `[Cl][Ru][Cl].c1ccc(-c2ccccn2)nc1.c1ccc(-c2ccccn2)nc1.c1ccc(-c2ccccn2)nc1` [[Ru(bpy)3]Cl2, reference compound], the “aggregate size (DLS, particle size distribution by intensity)” value in data set [1] was “no visible aggregates were observed”. Moreover, the “Φ (luminescence quantum yield)” value in [2] (MeCN (298 K)) is 1.6%; in data set [8], 4.9^55%. In addition, in data set [2] (setting [10]), the λabs came out at 453 nm. Moreover, the λem in [2] (setting [10]) worked out at 630 nm. Besides, the τ1 came to 156 ns in data set [3] (MeCN), 205 ns in data set [3] (MeOH), 329 ns in data set [3] (setting [11]) and 357 ns in [3] (setting [12]). Moreover, the IC50 in data set [4] and in [5] was greater than 100 µM throughout. Moreover, the “SI = selectivity index, [IC50(ER‑)]light/[IC50(ER+)]light” value in data set [4] is “NPD ^b”. The “1O2 quantum yield (ΦΔ)” value in data set [9] is recorded as 0.41.
